In US12496320B2, “Lactobacillus sp. strain and use thereof” (LG HOUSEHOLD & HEALTH CARE LTD., priority 2020, dated 2025):

Key:
Format in all cases: cell-based
[1] = system: MNT-1 melanoma cells; assay: Melanin production inhibitory ability; settings: 200 μg/mL, 72 hours
Procedure: The melanin production inhibitory ability (brightening) of the Lactobacillus pentosus […]-1 strain of the present invention was investigated. Specifically, MNT-1 melanoma cells were prepared by adding 10% FBS to DMEM (Dulbecco's Modified Eagle's Medium) as a basal medium. Then, the MNT-1 melanoma cells were seeded in a 6-well plate at a concentration of 1 to 2×10^5 cells/mL and cultured for 24 hours. Subsequently, the strain of the present invention was treated, and the cells were cultured for 72 hours and then recovered. Then, after centrifugation at 13,000 rpm for 1 minute and removal of the supernatant, 300 μL of a 0.5% Triton X-100 solution was added to the pellet to lyse the cells. Thereafter, centrifugation was performed at 13,000 rpm for 3 minutes, and the pellet and supernatant were recovered. Then, 100 μL of 0.5N NaOH was added to the pellet, and the cells were incubated overnight to dissolve melanin, and then the absorbance at 450 nm was measured using an ELISA reader.

[2] = system: raw 264.7 mouse macrophages; assay: Nitric oxide production inhibitory ability, GRIESS method, LPS stimulated; settings: 100 uM, 500 ng/mL LPS
Procedure: The NO production inhibitory ability of the Lactobacillus pentosus NIFSLG-1 strain of the present invention was investigated. Specifically, the nitric oxide (NO) production ability in raw 264.7 mouse macrophages was evaluated for anti-inflammatory efficacy using the GRIESS method. First, the Raw 264.7 cells (2×10^5 cells/well) were dispensed into a 24-well culture plate, cultured in a DMEM medium containing 10% FBS (fetal bovine serum) for 24 hours, and then cultured in a medium without FBS for 12 hours. Subsequently, […] and pretreated for 30 minutes, and added to the cells with LPS (lipopolysaccharide) to a final concentration of 500 ng/ml, and then cultured for 18 hours.
Thereafter, the supernatant was recovered, and the GRIESS reagent was added, followed by reacting at room temperature for 15 minutes, and the absorbance was measured at 540 nm to evaluate the relative NO production and production inhibitory ability.

[3] = system: skin fibroblasts; assay: Collagen synthesis effect, ELISA; settings: concentration 100 (unit not given), 24 hours
Procedure: The efficacy of collagen synthesis was investigated for the Lactobacillus pentosus […]-1 strain of the present invention. Specifically, after primary culture of skin fibroblasts, DMEM (Dulbecco's Modified Eagle's Medium) with an addition of 10% FBS was used as a basal medium for the skin fibroblasts. Then, the skin fibroblasts were seeded in a 48-well plate at a concentration of 2 to 5×10^4 cells/mL and cultured for 24 hours. Subsequently, the growth medium was removed, and a medium containing the strain of the present invention (without FBS added) was added, and the cells were cultured for 24 hours, and thereafter the cell culture solution was taken and subjected to ELISA analysis.

Q: For `OC[C@H]1O[C@@H](Oc2ccc(O)cc2)[C@H](O)[C@@H](O)[C@@H]1O` [Arbutin], which “Melanin content (% control)” value [1] is on record?
A: 74.37 % control

Q: With `CNC(=N)NCCC[C@H](N)C(=O)O` [L-NMMA] as the compound, how does the “Inhibition Rate (% control) of NO production” value [2] read?
A: 81.2 % control

Q: For `O=C1O[C@H]([C@@H](O)CO)C(O)=C1O` [Vita C], which “Collagen (% control)” value [3] is on record?
A: 161.91 % control
